Columns and labels:
[1] = Electrochemical impedance spectroscopy (EIS) of galvanized steel in 3.5% NaCl with additives; conditions: for η, inhibitor efficiency from EIS: 3.5% NaCl, 25° C, pH 5.6, additive 10 mg/mL
Description: The electrochemical open-to-air cell (PTC1™ Paint Test Cell, Gamry Instruments, Warminster, Pa.) was utilized for the potentiodynamic polarization (Tafel tests) and electrochemical impedance spectroscopy experiments. […] Tafel tests (ASTM GS) were conducted using a Parstat PMC-2000 multichannel potentiostat equipped with Versa Studio 2.50.3 software (Princeton Applied Research, Oak Ridge, Tenn.). Tafel tests were modeled with a ZSIMPWIN™ software for complex nonlinear least square analyses fitting the circuit models of the electrode interface to the Nyquist amplitude of 10 mV at the open circuit potential in the frequency range of 100 kHz to 0.2 Hz. […] In a series of measurements with the corrosion inhibiting additives, a range of the additive concentrations was studied and the scan range was set from 150 mV below the open circuit voltage (OCV) to 200 mV more positive than the OCV, with three measurements for each condition. The range in these measurements was limited in order to minimize the cathodic polarization causing local pH changes.
EIS (FIGS. 17A and 17B) was applied to further reveal the effects of the corrosion inhibitors on the electrolyte-galvanized steel electrode interface and to complement the potentiodynamic polarization measurements. The qualitative information was obtained using fit analysis embedded into the software used to model the spectra, employing electrical equivalent circuits (EECs).
Elements of the EECs are described in the legend to FIGS. 17A and 17B. The corrosion resistance of the galvanized steel surface in the presence of the corrosion inhibitor represents the RCT+Rp sum. In the control measurement without the additive, the spectrum with one time constant EEC was used, wherein the electrode resistance is represented by RCT.
EIS measurements enabled estimation of the corrosion inhibition efficiency: […]

[2] = Potentiodynamic polarization (Tafel tests) of galvanized steel in 3.5% NaCl with additives; conditions: for Corrosion rate / Icorr (corrosion current density) / IE, inhibitor efficiency from Tafel: 25° C; for formation of white rust on the steel working electrode: millimolar or higher concentrations in 3.5% NaCl; for corrosion inhibitor efficiency compared with other additives: pH 5.3, equivalent concentrations
Excerpt: The electrochemical open-to-air cell (PTC1™ Paint Test Cell, Gamry Instruments, Warminster, Pa.) was utilized for the potentiodynamic polarization (Tafel tests) and electrochemical impedance spectroscopy experiments. The electrochemical cell was composed of working electrode made of galvanized steel (zinc-galvanized sheets of type B carbon steel, ASTM A653, total thickness 0.305 mm, working area 2.2 cm^2 or 15.2 cm^2, McMaster Carr Supply Co., Robbinsvill, N.J.), reference Ag/AgCl electrode, and Pt wire auxiliary electrode (BASK) Corp., West Lafayette, Ind.). Prior to the immersion in the electrolyte (3.5% NaCl, pH adjusted to 5.25-5.3, 40 mL), the working electrodes were washed by acetone, ethanol, dried by nitrogen flow and polished with P1200 grit.^24 The working electrode was immersed into electrolyte containing the tested compound at a given concentration with desired pH at 25° C. for 60 min prior to each measurement. […] The carbon steel used herein was coated with the average minimum coating thickness per ASTM A653 being 2.0 mils (0.0508 mm) per surface. Tafel tests (ASTM GS) were conducted using a Parstat PMC-2000 multichannel potentiostat equipped with Versa Studio 2.50.3 software (Princeton Applied Research, Oak Ridge, Tenn.). Tafel tests were modeled with a ZSIMPWIN™ software for complex nonlinear least square analyses fitting the circuit models of the electrode interface to the Nyquist amplitude of 10 mV at the open circuit potential in the frequency range of 100 kHz to 0.2 Hz. Parameters for Tafel tests were as follows: initial potential, −1.25 V (vs reference); final potential, −0.45 V; scan properties: step height, 0.5 mV, step time, 2 s. In a series of measurements with the corrosion inhibiting additives, a range of the additive concentrations was studied and the scan range was set from 150 mV below the open circuit voltage (OCV) to 200 mV more positive than the OCV, with three measurements for each condition. The range in these measurements was limited in order to minimize the cathodic polarization causing local pH changes.
In the vicinity of Ecorr both currents are present in the specimen, but experimentally it is possible to measure only the net current. The net current has a single measurable polarity, either positive or negative. At Ecorr the net measured current is exactly zero. The corrosion current (icorr) is expressed as (for definitions, see FIG. 13):
[formula] where E.W. is the equivalent weight of the corroding species, g. In this case, the corroding species is Zn, so E.W.=32.7 g. Icorr, is the corrosion current density in μA/cm^2, and d is the density of the corroding species. Density of zinc is 7.140 g/cm^3.
From the icorr values, inhibitor efficiencies (IE, %) were calculated as (equation (1)): […]

[3] = cited from earlier work
[4] = cited from earlier work; remark: listed apart in the source
[5] = 44.7 mM, electrolyte containing 0.0165 wt % NaCl (pH not stated); cited from earlier work
[6] = Solubility / dissolution testing
[7] = Hygroscopicity on standing in an open jar at 80% relative humidity; type: physicochemical; conditions: converted to pasty solid
Description: The crystals were hygroscopic and converted to caramel-like, pasty solid on standing in an open jar at 80% relative humidity. […] Thermogravimetric analysis (TGA) and simultaneous differential scanning calorimetry (DSC) were conducted using a Q600 TGA/DSC instrument (TA Instruments, Inc.). Samples were subjected to heating scans (10 or 20° C./min) in a temperature ramp mode under nitrogen atmosphere.

[8] = 3.5% NaCl, pH 5.3, [Mg2+] 71.8, [Ac−] 144, [TDPA] 0 meq/L
[9] = 3.5% NaCl, pH 5.6, additive 10 mg/mL
[10] = 3.5% NaCl, pH 2.1, [TDPA] 94.8 meq/L
[11] = 3.5% NaCl, pH 5.3, [TDPA] 47.4 meq/L
[12] = 3.5% NaCl, pH 5.3, [TDPA] 94.8 meq/L
[13] = 3.5% NaCl, pH 5.3, [Mg2+] 9.93, [Ac−] 9.93, [TDPA] 15.9 meq/L
[14] = 3.5% NaCl, pH 5.3, [Mg2+] 41.9, [Ac−] 41.9, [TDPA] 67.1 meq/L
[15] = 3.5% NaCl, pH 5.3, [Mg2+] 62.9, [Ac−] 62.9, [TDPA] 101 meq/L
[16] = 3.5% NaCl, pH 5.3, [Mg2+] 49.8, [TDPA] 49.8 meq/L
[17] = 3.5% NaCl, pH 5.3, [Mg2+] 167, [TDPA] 33.5 meq/L

CC(=O)[O-].CC(=O)[O-].O.O.O.O.[Mg+2] [MgAc2, magnesium acetate tetrahydrate, reference compound]
η, inhibitor efficiency from EIS [1]: 41%
Corrosion rate [2, 8]: 37.0 mpy
Icorr (corrosion current density) [2, 8]: 62.1 μA/cm^2
Corrosion rate [2, 9]: 8.03 mpy
IE, inhibitor efficiency from Tafel [2, 9]: 48%
Icorr (corrosion current density) [2, 9]: 13.5 μA/cm^2

O=C(O)CCSCCC(=O)O [TDPA, 3,3′-thiodipropionic acid, reference compound]
η, inhibitor efficiency from EIS [1]: 81%
pKa [3]: 4.11
solubility in solvents [4]: soluble in water, acetone, and alcohol
Corrosion rate [2, 10]: 474 mpy
Icorr (corrosion current density) [2, 10]: 796 μA/cm^2
Corrosion rate [2, 11]: 26.5 mpy
Icorr (corrosion current density) [2, 11]: 44.5 μA/cm^2
Corrosion rate [2, 12]: 16.9 mpy
Icorr (corrosion current density) [2, 12]: 28.4 μA/cm^2
Corrosion rate [2, 9]: 2.47 mpy
IE, inhibitor efficiency from Tafel [2, 9]: 84%
Icorr (corrosion current density) [2, 9]: 4.15 μA/cm^2
formation of white rust on the steel working electrode [2]: visibly reduced the formation of white rust

CCCCCCCCCC(=O)O [decanoic acid]
inhibition efficiency η [5]: 83.5%

magnesium acetate thiodipropionate [MgAcTDPA]
η, inhibitor efficiency from EIS [1]: 80%
concentration on dissolution in warm ethanol ([6]; warm ethanol): at least 10 wt %
hygroscopicity of the crystals [7]: hygroscopic
Corrosion rate [2, 13]: 29.4 mpy
Icorr (corrosion current density) [2, 13]: 49.3 μA/cm^2
Corrosion rate [2, 14]: 7.9 mpy
Icorr (corrosion current density) [2, 14]: 13.3 μA/cm^2
Corrosion rate [2, 15]: 1.85 mpy
Icorr (corrosion current density) [2, 15]: 3.12 μA/cm^2
Corrosion rate [2, 9]: 2.41 mpy
IE, inhibitor efficiency from Tafel [2, 9]: 84%
Icorr (corrosion current density) [2, 9]: 4.06 μA/cm^2
corrosion inhibitor efficiency compared with other additives ([2]; 3.5% NaCl): the most efficient corrosion inhibitor
formation of white rust on the steel working electrode [2]: visibly reduced the formation of white rust

magnesium thiodipropionate [MgTDPA1:1]
increase in total resistance Ri=RCT+Rp versus Ro=RCT without inhibitor ([1]; 10 mg/mL in 3.5% NaCl, pH 5.6, 25° C): 283 fold
η, inhibitor efficiency from EIS [1]: 99%
effect on Icorr in Tafel plots (FIG. 16) ([2]; 10 mg/mL in 3.5% NaCl, pH 5.6, versus no additive and other additives): reduced the Icorr values the most
breakdown potentials (instability of the oxide film, pitting corrosion) ([2]; 1-2 mM concentrations and above in the 3.5% NaCl electrolyte): increased
Corrosion rate [2, 16]: 21.1 mpy
Icorr (corrosion current density) [2, 16]: 35.5 μA/cm^2
Corrosion rate [2, 9]: 1.07 mpy
IE, inhibitor efficiency from Tafel [2, 9]: 93%
Icorr (corrosion current density) [2, 9]: 1.79 μA/cm^2
corrosion inhibitor effectiveness compared with controls (data in Table 1) ([2]; galvanized steel, 3.5% NaCl): more effective corrosion inhibitor for galvanized steel than either TDPA or MgAc2
formation of white rust on the steel working electrode [2]: visibly reduced the formation of white rust

magnesium thiodipropionate [MgTDPA5:1]
η, inhibitor efficiency from EIS [1]: 72%
solubility in the electrolyte ([6]; 3.5% NaCl electrolyte, yielded a suspension): only fractionally soluble
Corrosion rate [2, 17]: 50.7 mpy
Icorr (corrosion current density) [2, 17]: 85.1 μA/cm^2
Corrosion rate [2, 9]: 4.65 mpy
IE, inhibitor efficiency from Tafel [2, 9]: 69%
Icorr (corrosion current density) [2, 9]: 7.82 μA/cm^2
corrosion inhibitor efficiency compared with other additives ([2]; 3.5% NaCl): quite effective in reducing the corrosion rate
